Measured values taken from patent US20230279025A1, “KRAS G12D INHIBITORS” (Mirati Therapeutics, Inc., priority 2020, published 2023).

Each compound was assayed against KRas G12D (Homo sapiens (Human), UniProt P01116, G12D) (assay: KRas G12D Binding Assay (TR-FRET displacement of Cy5 labelled tracer)). Settings: GDP-loaded KRAS G12D (amino acids 1:169), 60 minute incubation at 22° C.
Sequence of KRas G12D (P01116 other isoform, or with tags, fused parts or gaps G12D): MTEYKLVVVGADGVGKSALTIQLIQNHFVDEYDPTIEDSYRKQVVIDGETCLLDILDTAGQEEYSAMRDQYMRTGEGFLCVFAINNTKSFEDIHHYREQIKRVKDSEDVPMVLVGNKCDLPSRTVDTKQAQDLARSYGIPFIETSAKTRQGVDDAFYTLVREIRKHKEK
Protocol: After a 60 minute incubation at 22° C., the reaction was measured using a PerkinElmer EnVision multimode plate reader via TR-FRET dual wavelength detection, and the percent of control (POC) calculated using a ratiometric emission factor. […] The POC values were fit to a 4-parameter logistic curve and the IC50 value was determined as the concentration where the curve crosses 50 POC.
ND stands for “not determined.”
With CN1CC[C@H](Oc2nc(N3C[C@H]4CC[C@@H](C3)N4)c3cnc(-c4cccc5cccc(Cl)c45)c(F)c3n2)C1 [Example 359, 4-((1R,5S)-3,8-diazabicyclo[3.2.1]octan-3-yl)-7-(8-chloronaphthalen-1-yl)-8-fluoro-2-(((S)-1-methylpyrrolidin-3-yl)oxy)pyrido[4,3-d]pyrimidine] the IC50 was 1640 nM. COc1nc(N2C[C@H]3CC[C@@H](C2)N3)c2cnc(-c3cc(O)cc4cccc(Cl)c34)c(F)c2n1 [Example 360, 4-(4-((1R,5S)-3,8-diazabicyclo[3.2.1]octan-3-yl)-8-fluoro-2-methoxypyrido[4,3-d]pyrimidin-7-yl)-5-chloronaphthalen-2-ol] was tested, and the IC50 was 50.8 nM. For CNC(C)COc1nc(N2CC3CCC(C2)N3)c2cnc(-c3cccc4cccc(Cl)c34)c(F)c2n1 (stereo not shown) [Example 363, bis(2,2,2-trifluoroacetate)], the IC50 was 3930 nM. Compound Oc1cc(-c2ncc3c(N4C[C@H]5CC[C@@H](C4)N5)nc(OCC45CCCN4CCC5)nc3c2F)c2c(F)cccc2c1 [Example 367, 4-(4-((1R,5S)-3,8-diazabicyclo[3.2.1]octan-3-yl)-8-fluoro-2-((tetrahydro-1H-pyrrolizin-7a(5H)-yl)methoxy)pyrido[4,3-d]pyrimidin-7-yl)-5-fluoronaphthalen-2-ol tris(2,2,2-trifluoroacetate)] has an IC50 of 0.7 nM. Fc1c(-c2ccccc2C(F)(F)F)ncc2c(N3C[C@H]4CC[C@@H](C3)N4)nc(OCC34CCCN3CCC4)nc12 [Example 370, 4-((1R,5S)-3,8-diazabicyclo[3.2.1]octan-3-yl)-8-fluoro-2-((tetrahydro-1H-pyrrolizin-7a(5H)-yl)methoxy)-7-(2-(trifluoromethyl)phenyl)pyrido[4,3-d]pyrimidine] showed an IC50 of 86.1 nM. Work on Oc1ccc(C(F)(F)F)c(-c2ncc3c(N4C[C@H]5CC[C@@H](C4)N5)nc(OCC45CCCN4CCC5)nc3c2F)c1 [Example 373, 3-(4-((1R,5S)-3,8-diazabicyclo[3.2.1]octan-3-yl)-8-fluoro-2-((tetrahydro-1H-pyrrolizin-7a(5H)-yl)methoxy)pyrido[4,3-d]pyrimidin-7-yl)-4-(trifluoromethyl)phenol] yielded an IC50 of 1.6 nM. In the case of C[C@H](N)COc1nc(N2CC3CCC(C2)N3)c2cnc(-c3cccc4cccc(Cl)c34)c(F)c2n1 [Example 374, (S)-1-((4-((1R,5S)-3,8-diazabicyclo[3.2.1]octan-3-yl)-7-(8-chloronaphthalen-1-yl)-8-fluoropyrido[4,3-d]pyrimidin-2-yl)oxy)propan-2-amine bis(2,2,2-trifluoroacetate)], the IC50 is reported as 348 nM. CN1CCc2cccc(Oc3nc(N4C[C@H]5CC[C@@H](C4)N5)c4cnc(-c5cccc6cccc(Cl)c56)c(F)c4n3)c2C1 [Example 378, 4-((1R,5S)-3,8-diazabicyclo[3.2.1]octan-3-yl)-7-(8-chloronaphthalen-1-yl)-8-fluoro-2-((2-methyl-1,2,3,4-tetrahydroisoquinolin-8-yl)oxy)pyrido[4,3-d]pyrimidine] was tested, and the IC50 was 6250 nM. In the case of CC(C)(N)COc1nc(N2CC3CCC(C2)N3)c2cnc(-c3cccc4cccc(Cl)c34)c(F)c2n1 [Example 387, bis(2,2,2-trifluoroacetate)], the IC50 is reported as 533 nM. Oc1cccc(OC(F)(F)F)c1-c1ncc2c(N3CC4CCC(C3)N4)nc(OC[C@@]34CCCN3C[C@H](F)C4)nc2c1F [Example 392, 2-(4-((1R,5S)-3,8-diazabicyclo[3.2.1]octan-3-yl)-8-fluoro-2-((2-fluorotetrahydro-1-H-pyrrolizin-7a(5H)-yl)methoxy)pyrido[4,3-d]pyrimidin-7-yl)-3-(trifluoromethoxy)phenol] showed an IC50 of 208 nM. Oc1cc(-c2ncc3c(N4C[C@H]5CC[C@@H](C4)N5)nc(OCCC(F)(F)F)nc3c2F)c2c(Cl)cccc2c1 [Example 393, 4-(4-((1R,5S)-3,8-diazabicyclo[3.2.1]octan-3-yl)-8-fluoro-2-(3,3,3-trifluoropropoxy)pyrido[4,3-d]pyrimidin-7-yl)-5-chloronaphthalen-2-ol] showed an IC50 of 76.3 nM. In the case of CC(C)c1cccc(C(C)C)c1-c1ncc2c(N3C[C@H]4CC[C@@H](C3)N4)nc(OCC34CCCN3CC(F)C4)nc2c1F (stereo partly drawn) [Example 394, 4-((1R,5S)-3,8-diazabicyclo[3.2.1]octan-3-yl)-7-(2,6-diisopropylphenyl)-8-fluoro-2-((2-fluorotetrahydro-1H-pyrrolizin-7a(5H)-yl)methoxy)pyrido[4,3-d]pyrimidine], the IC50 is reported as 2500 nM. CN1CCC(F)(COc2nc(N3C[C@H]4CC[C@@H](C3)N4)c3cnc(-c4cccc5cccc(Cl)c45)c(F)c3n2)CC1 [Example 398, 4-((1R,5S)-3,8-diazabicyclo[3.2.1]octan-3-yl)-7-(8-chloronaphthalen-1-yl)-8-fluoro-2-((4-fluoro-1-methylpiperidin-4-yl)methoxy)pyrido[4,3-d]pyrimidine] showed an IC50 of 593 nM. With Oc1cc(-c2ncc3c(N4C[C@H]5CC[C@@H](C4)N5)nc(OCC45CCCN4C(CF)CC5)nc3c2F)c2c(Cl)cccc2c1 (stereo partly drawn) [Example 400, 4-(4-((1R,5S)-3,8-diazabicyclo[3.2.1]octan-3-yl)-8-fluoro-2-((3-(fluoromethyl)tetrahydro-1H-pyrrolizin-7a(5H)-yl)methoxy)pyrido[4,3-d]pyrimidin-7-yl)-5-chloronaphthalen-2-ol] the IC50 was 4.2 nM. CC(C)c1ccc(O)cc1-c1ncc2c(N3C[C@H]4CC[C@@H](C3)N4)nc(OCC34CCCN3CCC4)nc2c1F [Example 403, 3-(4-((1R,5S)-3,8-diazabicyclo[3.2.1]octan-3-yl)-8-fluoro-2-((tetrahydro-1H-pyrrolizin-7a(5H)-yl)methoxy)pyrido[4,3-d]pyrimidin-7-yl)-4-isopropylphenol] gave an IC50 of 1.9 nM. Work on COC1(OC)CN2CCCC2(COc2nc(N3C[C@H]4CC[C@@H](C3)N4)c3cnc(-c4cccc5cccc(Cl)c45)c(F)c3n2)C1 (stereo partly drawn) [Example 404, 4-((1R,5S)-3,8-diazabicyclo[3.2.1]octan-3-yl)-7-(8-chloronaphthalen-1-yl)-2-((2,2-dimethoxytetrahydro-H-pyrrolizin-7a(5H)-yl)methoxy)-8-fluoropyrido[4,3-d]pyrimidine] yielded an IC50 of 60.8 nM. CN(C)C(=O)OC[C@H]1CC[C@@]2(COc3nc(N4CC5CCC(C4)N5)c4cnc(-c5cccc6cccc(Cl)c56)c(F)c4n3)CCCN12 [Example 405, (7a-(((4-(3,8-diazabicyclo[3.2.1]octan-3-yl)-7-(8-chloronaphthalen-1l-yl)-8-fluoropyrido[4,3-d]pyrimidin-2-yl)oxy)methyl)hexahydro-1H-pyrrolizin-3-yl)methyl dimethylcarbamate] showed an IC50 of 2.2 nM. In the case of CNC(=O)OC[C@H]1CC[C@@]2(COc3nc(N4CC5CCC(C4)N5)c4cnc(-c5cccc6cccc(Cl)c56)c(F)c4n3)CCCN12 [Example 408, (7a-(((4-(3,8-diazabicyclo[3.2.1]octan-3-yl)-7-(8-chloronaphthalen-1-yl)-8-fluoropyrido[4,3-d]pyrimidin-2-yl)oxy)methyl)hexahydro-1H-pyrrolizin-3-yl)methyl methylcarbamate], the IC50 is reported as 3.1 nM. For COC(=O)NC[C@H]1CC[C@@]2(COc3nc(N4CC5CCC(C4)N5)c4cnc(-c5cccc6cccc(Cl)c56)c(F)c4n3)CCCN12 [Example 411, methyl ((7a-(((4-(3,8-diazabicyclo[3.2.1]octan-3-yl)-7-(8-chloronaphthalen-1-yl)-8-fluoropyrido[4,3-d]pyrimidin-2-yl)oxy)methyl)hexahydro-1H-pyrrolizin-3-yl)methyl)carbamate], the IC50 was 17 nM.
